From PMC5410297, “Sepia ink oligopeptide induces apoptosis and growth inhibition in human lung cancer cells” (Oncotarget, 2017)

Columns and labels:
A549 and H1299 cells = assay: Anti-proliferative effect, MTT and CCK-8 assays; format: cell-based, human; conditions: A549 and H1299, MTT and CCK-8, 5 μM, n = 3
Procedure: Cell proliferation and apoptosis are crucial markers of cancer metastasis and invasive properties. To explore whether the stable SIO has much better effect on inhibiting the proliferation of A549 and H1299 cells, MTT and CCK-8 assays (Supplementary Figure 1) were conducted to investigate the anti-proliferative effect in PBS, FITC, stable SIO and linear SIO treated groups. […] It was worth noting that the anti-proliferative effect of SIO was in a time-dependent manner, which was significant at 48 hours (54%), and was peaked at 72 hours (70%).
Figure 6 The strong cell penetration of stable SIO in A549 or H1299 cells inhibited cell proliferation and induced cell apoptosis FITC-Annexin V and propidium iodide (PI) containing apoptosis assay on A549 or H1299 cells treated with PBS (as blank), FITC (5 μM), linear SIO (5 μM) and stable SIO (5 μM) for 72 hours. (A and D) Apoptotic cells stained with Annexin V/PI were measured by flow cytometry. (B and E) The statistic results of cell apoptosis by flow cytometry. […] Percentage cell viability of the treated cells is calculated relative to that of PBS treated cells (with arbitrarily assigned 100% viability). […]
Cell viability was measured using Cell Counting The plates were processed as described above, and the Kit-8 (CCK-8, Sigma, St. Louis, MO, USA) following the OD450 of the supernatant was measured. […]

A549 cells = format: cell-based, human
Procedure: To quantitatively evaluate the corresponding cellular uptakes and average fluorescent intensity of linear SIO or stable SIO in human lung cancer cells, A549 cells were treated with PBS (as blank), FITC, stable SIO and linear SIO for 2 hours and then were analyzed by flow cytometry (Figure 5). […] Almost identical results were obtained from another lung cancer cell line H1299 (Figure 5D–5F). Therefore, the results were consistent with the cell fluorescent imaging analysis, which indicated stable SIO was much more appropriate to penetrate into cells.
Figure 5 Delivery efficiency of stable SIO or linear SIO in A549 or H1299 cells evaluated by flow cytometry (A and D) A549 or H1299 cells were treated with PBS (as blank), FITC (5 μM), linear SIO (5 μM) and stable SIO (5 μM) for 2 hours and the statistical count of cells were gathered by flow cytometry. […] Average fluorescence intensity presents the FITC intensity in the cells. […]
To test the delivery efficiency of stable SIO or linear SIO, A549 cells were cultured in the 6-well plates and were treated with PBS (as blank), FITC, stable FITC-SIO and linear FITC-SIO separately for […]. […] Samples were then analyzed by the FACSCalibur flow cytometer (Becton Dickinson). The cellular uptake and average fluorescent intensity were analyzed using Flowjo software.

## O=C1OC2(c3ccc(O)cc3Oc3cc(O)ccc32)c2ccc(N=C=S)cc21 [FITC]
A549 and H1299 cells
  inhibition of cell growth (in words): no obvious inhibition
A549 cells
  delivery (permeability) efficiency: ratio of fluorescent cell counts to total cell counts: 5.82 ± 0.95%
